From patent US12454530B2, “Amido cyclohexane acid derivatives as LPA receptor inhibitors” (CHIESI FARMACEUTICI S.P.A., priority 2020, dated 2025) come the findings set out here.

As usually defined, the inhibition is how much of the control response was suppressed. Low values mean a weak effect, high ones a strong effect. In general, IC50 refers to the concentration that gives 50% inhibition.

In one series the target is BSEP (Homo sapiens (Human), UniProt O95342). The series is described as follows: BSEP inhibition: biliary clearance of Taurocolic Acid in sandwich-cultured human hepatocytes. The class given is in vitro ADME. The conditions noted are these: sandwich-cultured cryopreserved human hepatocytes, probe Taurocolic Acid (TCA); 50 μM test compound, 10 μM TCA, human hepatocytes sandwich configuration. Put shortly:
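Cryopreserved human hepatocytes were sandwich-cultured between collagen layers for 5 days, then incubated for 10 min at 37 °C in HBSS+ with 10 μM taurocholic acid, with or without 50 μM test compound. Bile content was released with Ca2+/Mg2+-free HBSS and quantified by HPLC-MS/MS. Inhibition is the percent reduction in TCA biliary clearance.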

Series [1] can be described thus: Permeability on Caco-2 cells monolayers. The class given is in vitro ADME. The settings on record: human, with Elacridar 10 µM (PgP inhibitor), Papp A>B with PgP inhibitor Elacridar, 10 μM compound, read-out: Passive Permeability. As for the experimental part: Even more advantageously, the compounds of formula (I) of the present invention are also endowed with a good permeability profile that, in its turn, can ensure a suitable bioavailability for an oral administration. The permeability was assessed in human Caco 2 cell line, an in vitro model that mimic human gastrointestinal barrier and so useful to predic oral absorption.
The permeability of the compounds of the present invention was evaluated performing the assay on Caco-2 cells monolayers (human colon adenocarcinoma immortalized cell) by measuring the transport of compound (absorption and secretion) in both directions: apical to basolateral direction (A>B) and basolateral to apical (B>A) with and without PgP inhibitor (Elacridar).
The cells, purched from ReadyCell in 96 well format (Cod. KRECE-CCR50), were cultured by the supplier for 21 day on transwell supports in DMEM 1 g/L glucose culture medium supplemented with Fetal Bovin Sierum (10%), Glutamine 200 mM (1%) and Penicillin 10000 U/ml-10 mg/ml Streptomycin (1%).
On day 21 of colture, cell monolayers integrity was verified by measuring the trans-epithelial electric resistance (TEER) using the EVOM equipment (Endohm, WPI, Germany) and studying the apparent permeability (Papp) of reference compounds (Sulpiride and Metoprolol). Furthermore, as a control, the Talinolol 10 uM (Pgp efflux substrate) with and without Elacridar in both directions was used.
The sample solution was prepared dissolving test compound in DMSO at the concentration of 10 mM and then diluted in the Assay Buffer (Hank's Balance Salt Solution) warmed at 37° C. before use, to give the 10 μM Compound working solution with and without 10 μM Elacridar. These working solutions were added to donor compartment (apical for A>B direction and basolateral for B>A direction) and Assay Buffer (Hank's Balance Salt Solution) to the receiver compartment (basolateral for A>B direction and apical for B>A direction). The plate was incubated at 37° C. for 120 min, all incubation were conducted in triplicates. At the end of incubation, samples from donor and receiver compartments were collected for HPLC-MS/MS analyses.
The permeability coefficients (Papp) in both directions: apical to basolateral (A>B) and basolateral to apical (B>A) with and without PgP inhibitor (Elacridar) was calculated in nm/sec, using the following equation:
[formula] • where: • Cr=measured concentration in the receiver well at the time t (expressed as IS ratio) • Vr=volume of the receiver well (ml) • t=time (sec) • A=membrane surface area (cm^2) • C0=initial donor concentration • Passive Papp is considered Papp A>B with PgP inhibitor Elacridar.

Series [2] has as its target human recombinant LPA1 expressed in CHO cells (Homo sapiens (Human), UniProt Q92633). The series can be described thus: LPA1 antagonist FLIPR calcium assay in CHO-hLPA1 cells. The class given is cell-based. The conditions noted are these: range of activity; CHO-hLPA1, LPA EC80, Ca2+ mobilization; read-out: LPA1 IC50. As for the experimental part:
The effectiveness of compounds of the present invention as LPA1 antagonists can be determined at the human recombinant LPA1 expressed in CHO cells, using a FLIPR assay in 384 well format.
CHO-hLPA1 cell lines are cultured in a humidified incubator at 5% CO2 in DMEM/F-12 (1:1) MIXTURE with 2 mM Glutamax, supplemented with 10% of Foetal Bovine Serum, 1 mM Sodium Pyruvate, 11 mM Hepes and 1× Penicillin/Streptomycin. […] Serial dilutions (1:3 or 1:4, 11 points CRC) of compounds are performed in 100% DMSO at 200× the final concentration. […] The final concentration of DMSO in the assay will be 0.5% in each well. Medium is removed by aspiration and cells are then incubated with 30 μl of a loading solution containing 5 μM of the cytoplasmic Ca2+ indicator Cal-520 AM in Assay Buffer containing 2.5 mM probenecid for 30 min at 37° C. incubator (cell loading). The loaded cell plates are transferred into the FLIPR instrument and calcium responses are monitored during the on-line addition protocols. For testing of compounds, after the cell loading, 10 μl/well of 4× antagonists' solution was added onto the cells. After 30 min pre-incubation (at 37° C.), 10 μl/well of 5× concentrated LPA EC80 was added and Ca2+ mobilization responses was followed during the on-line addition protocol. Intracellular peak fluorescence values subtracted by baseline fluorescence are exported and analysed to determine IC50 values, respectively. The calcium response is expressed as percentage of the maximal inhibition of the EC80 agonist response.
The raw data (peak height expressed as relative fluorescence units) are normalized and transformed into “percent of inhibition”. Curve fitting and pIC50 (−LogIC50) estimations are carried out using a four-parameter logistic model using XLfit Software.

SMILES strings stand for the structures. Bounds are passed on as bounds.

Sequence of BSEP (O95342 whole entry): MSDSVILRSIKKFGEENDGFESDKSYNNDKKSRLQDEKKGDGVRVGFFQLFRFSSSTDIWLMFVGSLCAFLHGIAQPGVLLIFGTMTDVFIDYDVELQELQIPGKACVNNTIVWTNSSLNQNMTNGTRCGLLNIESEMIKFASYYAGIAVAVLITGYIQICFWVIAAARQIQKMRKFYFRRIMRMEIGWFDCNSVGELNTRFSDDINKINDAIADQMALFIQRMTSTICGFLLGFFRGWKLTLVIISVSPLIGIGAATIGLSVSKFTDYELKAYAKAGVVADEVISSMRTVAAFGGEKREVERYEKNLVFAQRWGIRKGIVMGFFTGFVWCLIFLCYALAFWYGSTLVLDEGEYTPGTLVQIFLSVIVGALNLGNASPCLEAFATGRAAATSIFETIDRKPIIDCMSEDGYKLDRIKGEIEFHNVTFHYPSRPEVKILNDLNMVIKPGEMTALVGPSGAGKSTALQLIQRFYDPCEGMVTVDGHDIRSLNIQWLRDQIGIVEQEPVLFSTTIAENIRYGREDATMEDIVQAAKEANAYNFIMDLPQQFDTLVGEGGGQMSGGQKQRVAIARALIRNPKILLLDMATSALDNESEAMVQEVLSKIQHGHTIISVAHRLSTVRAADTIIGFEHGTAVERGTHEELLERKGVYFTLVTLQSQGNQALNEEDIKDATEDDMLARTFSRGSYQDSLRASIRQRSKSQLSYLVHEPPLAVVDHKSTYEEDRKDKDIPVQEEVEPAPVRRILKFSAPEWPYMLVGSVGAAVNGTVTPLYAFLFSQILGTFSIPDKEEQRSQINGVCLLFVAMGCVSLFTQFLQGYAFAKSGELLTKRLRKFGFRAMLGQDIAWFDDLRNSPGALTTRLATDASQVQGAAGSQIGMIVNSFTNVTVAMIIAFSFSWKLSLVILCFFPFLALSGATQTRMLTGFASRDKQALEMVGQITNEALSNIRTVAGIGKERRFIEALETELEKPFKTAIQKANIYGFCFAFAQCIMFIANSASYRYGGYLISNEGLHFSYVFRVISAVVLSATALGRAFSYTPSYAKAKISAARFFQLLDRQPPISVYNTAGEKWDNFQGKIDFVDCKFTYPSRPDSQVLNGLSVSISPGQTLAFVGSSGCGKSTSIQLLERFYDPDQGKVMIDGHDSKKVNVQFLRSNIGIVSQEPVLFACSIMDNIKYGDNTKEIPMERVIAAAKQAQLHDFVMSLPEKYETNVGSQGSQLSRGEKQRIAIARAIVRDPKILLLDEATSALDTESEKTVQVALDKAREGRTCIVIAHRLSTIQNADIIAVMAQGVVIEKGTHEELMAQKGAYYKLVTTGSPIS
Sequence of human recombinant LPA1 expressed in CHO cells (Q92633 whole entry): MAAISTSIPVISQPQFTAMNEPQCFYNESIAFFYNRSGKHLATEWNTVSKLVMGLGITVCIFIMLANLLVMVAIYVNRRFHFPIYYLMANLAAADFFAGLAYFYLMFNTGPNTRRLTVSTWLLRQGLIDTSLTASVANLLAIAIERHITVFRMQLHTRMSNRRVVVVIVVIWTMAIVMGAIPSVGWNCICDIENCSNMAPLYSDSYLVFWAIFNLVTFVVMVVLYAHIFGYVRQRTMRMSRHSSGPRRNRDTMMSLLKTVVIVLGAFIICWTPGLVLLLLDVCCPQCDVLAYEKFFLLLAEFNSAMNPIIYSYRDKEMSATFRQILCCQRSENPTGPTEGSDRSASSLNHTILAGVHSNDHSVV

`Cc1nc(-c2onc(C)c2NC(=O)O[C@H](C)c2ccccc2F)ccc1NC(=O)[C@H]1CCCC[C@@H]1C(=O)O` [Example 24, (1S,2S)-2-((6-(4-((((R)-1-(2-fluorophenyl)ethoxy)carbonyl)amino)-3-methylisoxazol-5-yl)-2-methylpyridin-3-yl)carbamoyl)cyclohexane-1-carboxylic acid] had an inhibition at 10 min, 50 μM against BSEP of no more than 50%. Moreover, the Papp at 120 min, 10 µM in series [1] was no less than 1.5 ×10⁻⁶ cm/s. Also, the IC50 in series [2] is less than 50 nM.
In the case of `Cc1nc(-c2onc(C)c2NC(=O)O[C@H](C)c2ccccc2Br)ccc1NC(=O)[C@H]1CCCC[C@@H]1C(=O)O` [Example 28, (1S,2S)-2-((6-(4-((((R)-1-(2-bromophenyl)ethoxy)carbonyl)amino)-3-methylisoxazol-5-yl)-2-methylpyridin-3-yl)carbamoyl)cyclohexane-1-carboxylic acid], in series [1], the Papp at 120 min, 10 µM was no less than 1.5 ×10⁻⁶ cm/s. The IC50 in series [2] is less than 50 nM.
On to `Cc1nc(-c2cnn(C)c2NC(=O)O[C@H](C)c2ccccc2F)ccc1NC(=O)[C@H]1CCCC[C@@H]1C(=O)O` [Example 50, (1S,2S)-2-((6-(5-((((R)-1-(2-fluorophenyl)ethoxy)carbonyl)amino)-1-methyl-1H-pyrazol-4-yl)-2-methylpyridin-3-yl)carbamoyl)cyclohexane-1-carboxylic acid], for which the inhibition at 10 min, 50 μM against BSEP was no more than 50%. Besides, the Papp at 120 min, 10 µM in series [1] was no less than 1.5 ×10⁻⁶ cm/s. Also, in series [2], the IC50 lay within 50 to 250 nM.
At BSEP, `Cc1noc(-c2ccc(NC(=O)[C@H]3CCCC[C@@H]3C(=O)O)cn2)c1NC(=O)OCc1ccccc1Cl` [Example 35, (1S,2S)-2-((6-(4-((((2-chlorobenzyl)oxy)carbonyl)amino)-3-methylisoxazol-5-yl)pyridin-3-yl)carbamoyl)cyclohexane-1-carboxylic acid] had an inhibition at 10 min, 50 μM of no more than 50%. Also, the Papp at 120 min, 10 µM in series [1] is no less than 1.5 ×10⁻⁶ cm/s. Besides, the concentration for half-maximal inhibition (IC50) in series [2] lay in the range of 50 to 250 nM.
For the molecule `COc1ccccc1[C@@H](C)OC(=O)Nc1c(C)noc1-c1ccc(NC(=O)[C@H]2CCCC[C@@H]2C(=O)O)c(C)n1` [Example 38, (1S,2S)-2-((6-(4-((((R)-1-(2-methoxyphenyl)ethoxy)carbonyl)amino)-3-methylisoxazol-5-yl)-2-methylpyridin-3-yl)carbamoyl)cyclohexane-1-carboxylic acid], the inhibition at 10 min, 50 μM on BSEP is no more than 50%. Moreover, in series [1], the Papp at 120 min, 10 µM was no less than 1.5 ×10⁻⁶ cm/s. In addition, the IC50 in series [2] was in the range of 50 to 250 nM.
Taken in the same sequence, the figures for `Cc1nc(-c2onc(C)c2NC(=O)O[C@H](C)C2CCCC2)ccc1NC(=O)[C@H]1CCCC[C@@H]1C(=O)O` [Example 26, (1S,2S)-2-((6-(4-((((R)-1-cyclopentylethoxy)carbonyl)amino)-3-methylisoxazol-5-y1)-2-methylpyridin-3-yl)carbamoy1)cyclohexane-1-carboxylic acid] were no more than 50%, no less than 1.5 ×10⁻⁶ cm/s and less than 50 nM.
`Cc1nc(-c2onc(C)c2NC(=O)O[C@H](C)c2ccccc2C(F)(F)F)ccc1NC(=O)[C@H]1CCCC[C@@H]1C(=O)O` [Example 25, (1S,2S)-2-((2-methyl-6-(3-methyl-4-((((R)-1-(2-(trifluoromethyl)phenyl)ethoxy)carbonyl)amino)isoxazol-5-yl)pyridin-3-yl)carbamoy1)cyclohexane-1-carboxylic acid]: the inhibition at 10 min, 50 μM against BSEP was no more than 50%. The Papp at 120 min, 10 µM in series [1] is no less than 1.5 ×10⁻⁶ cm/s. In addition, the IC50 in series [2] fell in the range of 50 to 250 nM.
The like results for `Cc1nc(-c2nnn(C)c2NC(=O)O[C@H](C)C2CCCC2)ccc1NC(=O)[C@H]1CCCC[C@@H]1C(=O)O` [Example 46, (1S,2S)-2-((6-(5-((((R)-1-cyclopentylethoxy)carbonyl)amino)-1-methyl-1H-1,2,3-triazol-4-yl)-2-methylpyridin-3-yl)carbamoyl)cyclohexane-1-carboxylic acid] were, in that order, no more than 50%, no less than 1.5 ×10⁻⁶ cm/s and 50 to 250 nM.
For the molecule `Cc1noc(-c2ccc(NC(=O)C3CCCCC3C(=O)O)cn2)c1NC(=O)O[C@H](C)c1ccccc1` (stereo in doubt) [Example 40, Cis-2-((6-(3-methyl-4-((((R)-1-phenylethoxy)carbonyl)amino)isoxazol-5-y1)pyridin-3-yl)carbamoyl)cyclohexane-1-carboxylic acid], on BSEP, the inhibition at 10 min, 50 μM was no more than 50%. Further, the Papp at 120 min, 10 µM in series [1] was no less than 1.5 ×10⁻⁶ cm/s. Also, the IC50 in series [2] was 50 to 250 nM.
On to `C[C@@H](OC(=O)Nc1ccsc1-c1ccc(NC(=O)C2CCCCC2C(=O)O)cc1)c1ccccc1Cl` (single isomer, unassigned) [Example 7], for which, on BSEP, the inhibition at 10 min, 50 μM was no more than 50%. In addition, the Papp at 120 min, 10 µM in series [1] is no less than 1.5 ×10⁻⁶ cm/s. In series [2], the IC50 was less than 50 nM.
The like results for `Cc1noc(-c2ccc(NC(=O)[C@H]3CCCC[C@@H]3C(=O)O)cn2)c1NC(=O)O[C@H](C)c1ccccc1C(F)(F)F` [Example 36, (1S,2S)-2-((6-(3-methyl-4-((((R)-1-(2-(trifluoromethyl)phenyl)ethoxy)carbonyl)amino)isoxazol-5-yl)pyridin-3-yl)carbamoyl)cyclohexane-1-carboxylic acid] were, in that order, no more than 50%, no less than 1.5 ×10⁻⁶ cm/s and 50 to 250 nM.
On to `Cc1noc(-c2ccc(NC(=O)[C@H]3CCCC[C@@H]3C(=O)O)cn2)c1NC(=O)O[C@H](C)c1ccccc1F` [Example 34, (1S,2S)-2-((6-(4-((((R)-1-(2-fluorophenyl)ethoxy)carbonyl)amino)-3-methylisoxazol-5-yl)pyridin-3-yl)carbamoyl)cyclohexane-1-carboxylic acid], for which the inhibition at 10 min, 50 μM against BSEP was no more than 50%. In addition, the Papp at 120 min, 10 µM in series [1] is no less than 1.5 ×10⁻⁶ cm/s. Besides, in series [2], the 50% inhibitory concentration (IC50) is less than 50 nM.
`CCC[C@@H](C)OC(=O)Nc1c(C)noc1-c1ccc(NC(=O)[C@H]2CCCC[C@@H]2C(=O)O)c(C)n1` [Example 49, (1S,2S)-2-((2-methyl-6-(3-methyl-4-(((((R)-pentan-2-yl)oxy)carbonyl)amino)isoxazol-5-yl)pyridin-3-yl)carbamoyl)cyclohexane-1-carboxylic acid]: the inhibition at 10 min, 50 μM at BSEP is no more than 50%. Also, the Papp at 120 min, 10 µM in series [1] is no less than 1.5 ×10⁻⁶ cm/s.
